Measured values published in patent US20240252508A1, “Novel glucose uptake inhibitors for use in the treatment of cancer” (NOVELYEAST BV, priority 2021, published 2024).

Columns and labels:
tps1Δ cells = experiment: Growth rescue of tps1Δ strain on glucose (growth curves, 2% galactose medium); format: cell-based, S. cerevisiae; conditions: 100 μM compound, 2.5 mM glucose
Method: Growth curves were made by measuring OD595 in a 96-well plate using the Multiskan™ FC Microplate Photometer (Thermo Fisher Scientific). Typically, for tps1Δ rescue experiments (FIG. 2b-e; FIG. 4a), cells were (pre)grown in Complete Synthetic medium containing 2% galactose.
Compounds were always added 10 min prior to glucose addition to ensure maximal interaction between the cells and compounds. Cells originating from the preculture were harvested, washed in medium without sugar, after which they were resuspended to an OD of 0.1 in 200 μL of the appropriate medium. At least three technical replicates were included per condition. OD595 was measured at 30° C. every 30 min with a 10-min shaking interval.

[1] = system: A549 lung adenocarcinoma cells; experiment: A549 cell proliferation / growth inhibition; format: cell-based, human; conditions: for Selected from primary screen for growth inhibition of A549 cells at 50 μM: 50 μM compound, 1 mM glucose; for Selected for having an IC50 ratio (10 mM glucose: 1 mM glucose) of A549 growth higher than WBC-A: IC50 on 10 mM vs 1 mM glucose, compared with WBC-A
Method: The analog library (n=203) was screened for inhibition of growth of A549 cells on RPMI medium supplemented with 1 mM glucose. DMSO (green bar) and WBC-A (orange bar) served as negative and positive control, respectively. In addition, the reference glucose transport inhibitors STF-31, Fasentin, BAY-876, WZB-117 and Cytochalasin B were included and indicated in red. Compounds were added at 50 μM concentration. Number of cells was determined by counting nuclei stained by Hoechst after three days of growth.
For both adherent A549 and MCF10Δ H-RAS^V12 cell lines, growth curves were established using the IncuCyte® ZOOM technology. By collecting phase contrast images, the IncuCyte® software provides a calculated confluency percentage from which growth curves can be deducted.
Cells were seeded at a density of 1000-1500 cells/well in a Nunc-Edge™ 96-well plate (Thermo Fisher Scientific) and growth was typically measured over 3 to 5 days. For the measurement of apoptosis induction using the MCF10Δ H-RAS^V12 cell line, the IncuCyte® Caspase-3/7 green dye was added to the medium in the recommended concentration at the beginning of the growth curve experiment. Apoptosis was detected by taking fluorescent images by excitation at 488 nm followed by IncuCyte® software analysis. Cell growth of the KMS-12-PE multiple myeloma cell line, which grows in suspension, was measured by manual cell counting. Cells were initially seeded at a density of 10^4 cells/well and incubated for 4 days after which the cell number was counted. For all cell lines, the same medium used for pregrowth was also used for the growth curve experiment, albeit with different glucose concentrations depending on the experimental design. With compound administration, the final concentration of DMSO never exceeded 0.1%. Typically, at least four technical repeats were included per condition.

Cc1nc(N(C)CC(=O)N2CCN(C)CC2)c2c(-c3cccs3)csc2n1 [10B]
Rescue of the tps1Δ strain on 2.5 mM glucose at 100 μM (tps1Δ cells): No | Selected from primary screen for growth inhibition of A549 cells at 50 μM [1]: No

Cc1nc(SCCN2CCCS2(=O)=O)c2c(C)c(C)sc2n1 [83C]
Rescue of the tps1Δ strain on 2.5 mM glucose at 100 μM (tps1Δ cells): No | Selected from primary screen for growth inhibition of A549 cells at 50 μM [1]: No

Cc1nc(SCC(=O)NC(=O)NCCC(C)C)c2c(-c3cccs3)csc2n1 [49B]
Rescue of the tps1Δ strain on 2.5 mM glucose at 100 μM (tps1Δ cells): No | Selected from primary screen for growth inhibition of A549 cells at 50 μM [1]: Yes | Selected for having an IC50 ratio (10 mM glucose: 1 mM glucose) of A549 growth higher than WBC-A [1]: Lower IC50 ratio

Cc1sc2nc(CSc3ccccc3)nc(NCc3nnc4n3CCCCC4)c2c1C [9A]
Rescue of the tps1Δ strain on 2.5 mM glucose at 100 μM (tps1Δ cells): No | Selected from primary screen for growth inhibition of A549 cells at 50 μM [1]: No

Cc1nc(SCC(=O)C(C)(C)C)c2c(-c3cccs3)csc2n1 [18A]
Rescue of the tps1Δ strain on 2.5 mM glucose at 100 μM (tps1Δ cells): No | Selected from primary screen for growth inhibition of A549 cells at 50 μM [1]: Yes | Selected for having an IC50 ratio (10 mM glucose: 1 mM glucose) of A549 growth higher than WBC-A [1]: Lower IC50 ratio

COc1ccc(-c2csc3nc(C)nc(SCCO)c23)cc1OC [18C]
Rescue of the tps1Δ strain on 2.5 mM glucose at 100 μM (tps1Δ cells): No | Selected from primary screen for growth inhibition of A549 cells at 50 μM [1]: No

COc1ccc(-c2csc3nc(C)nc(Sc4nnc(-c5ccoc5C)n4C)c23)cc1OC [20A]
Rescue of the tps1Δ strain on 2.5 mM glucose at 100 μM (tps1Δ cells): No | Selected from primary screen for growth inhibition of A549 cells at 50 μM [1]: Yes | Selected for having an IC50 ratio (10 mM glucose: 1 mM glucose) of A549 growth higher than WBC-A [1]: Lower IC50 ratio

CCc1nc(SCC(=O)OC)c2ccsc2n1 [42C]
Rescue of the tps1Δ strain on 2.5 mM glucose at 100 μM (tps1Δ cells): No | Selected from primary screen for growth inhibition of A549 cells at 50 μM [1]: No | Selected for having an IC50 ratio (10 mM glucose: 1 mM glucose) of A549 growth higher than WBC-A [1]: Lower IC50 ratio

Cc1nc(SC(C(=O)NC(N)=O)C(C)C)c2c(-c3cccs3)csc2n1 (stereo not shown) [34B]
Rescue of the tps1Δ strain on 2.5 mM glucose at 100 μM (tps1Δ cells): No | Selected from primary screen for growth inhibition of A549 cells at 50 μM [1]: No

Cc1nc(SCC(=O)N2CCOCC2)c2c3c(sc2n1)CCC3 [65C]
Rescue of the tps1Δ strain on 2.5 mM glucose at 100 μM (tps1Δ cells): No | Selected from primary screen for growth inhibition of A549 cells at 50 μM [1]: No

Cc1nnc(Sc2nc(-c3cccs3)nc3scc(-c4ccccc4)c23)n1N [8A]
Rescue of the tps1Δ strain on 2.5 mM glucose at 100 μM (tps1Δ cells): No | Selected from primary screen for growth inhibition of A549 cells at 50 μM [1]: No

Cc1ccc(-c2csc3ncnc(SCC(=O)N(C)Cc4ccc(C)o4)c23)cc1 [2B]
Rescue of the tps1Δ strain on 2.5 mM glucose at 100 μM (tps1Δ cells): No | Selected from primary screen for growth inhibition of A549 cells at 50 μM [1]: Yes | Selected for having an IC50 ratio (10 mM glucose: 1 mM glucose) of A549 growth higher than WBC-A [1]: Lower IC50 ratio

Cc1nc(Sc2nnc[nH]2)c2cc(-c3ccccc3)sc2n1 [59A]
Rescue of the tps1Δ strain on 2.5 mM glucose at 100 μM (tps1Δ cells): No | Selected from primary screen for growth inhibition of A549 cells at 50 μM [1]: No

COC(=O)C(C)Sc1nc(C)nc2scc(-c3cccs3)c12 (stereo not shown) [36B]
Rescue of the tps1Δ strain on 2.5 mM glucose at 100 μM (tps1Δ cells): No | Selected from primary screen for growth inhibition of A549 cells at 50 μM [1]: No

Cc1nc(SCC(=O)Nc2c(Cl)cccc2C(F)(F)F)c2c(-c3cccs3)csc2n1 [19C]
Rescue of the tps1Δ strain on 2.5 mM glucose at 100 μM (tps1Δ cells): No | Selected from primary screen for growth inhibition of A549 cells at 50 μM [1]: No

COC(=O)CSc1nc(C)nc2scc(-c3cccs3)c12 [53A]
Rescue of the tps1Δ strain on 2.5 mM glucose at 100 μM (tps1Δ cells): Yes | Selected from primary screen for growth inhibition of A549 cells at 50 μM [1]: No

CCCNC(=O)CN1CCC(Nc2nc(C)nc3scc(-c4cccs4)c23)CC1 [30B]
Rescue of the tps1Δ strain on 2.5 mM glucose at 100 μM (tps1Δ cells): No | Selected from primary screen for growth inhibition of A549 cells at 50 μM [1]: No

CCn1c(Sc2nc(C)nc3scc(-c4cccs4)c23)n[nH]c1=O [51A]
Rescue of the tps1Δ strain on 2.5 mM glucose at 100 μM (tps1Δ cells): No | Selected from primary screen for growth inhibition of A549 cells at 50 μM [1]: Yes | Selected for having an IC50 ratio (10 mM glucose: 1 mM glucose) of A549 growth higher than WBC-A [1]: Lower IC50 ratio

Cc1nc(SCC(=O)NC(=O)NCc2ccco2)c2c(-c3cccs3)csc2n1 [28B]
Rescue of the tps1Δ strain on 2.5 mM glucose at 100 μM (tps1Δ cells): No | Selected from primary screen for growth inhibition of A549 cells at 50 μM [1]: No

COC(=O)CSc1nc(C)nc2sc3c(c12)CCC3 [14C]
Rescue of the tps1Δ strain on 2.5 mM glucose at 100 μM (tps1Δ cells): No | Selected from primary screen for growth inhibition of A549 cells at 50 μM [1]: No
